# From US8951580B2, “Methods for improving the safety of treating pediatric patients who are candidates for inhaled nitric oxide treatment” (priority 2009, dated 2015)
# Experiments:
# [1] = system: pulmonary vasculature of children with pulmonary hypertension; assay: INOT22 study: acute pulmonary vasodilator testing during cardiac catheterization; settings: iNO 80 ppm; for SVRI Change From Baseline, Mean / SVRI Change From Baseline, Median / SVRI Change From Baseline, Minimum / SVRI Change From Baseline, maximum / Ratio PVRI/SVRI Change from Baseline, Maximum / Ratio PVRI/SVRI Change from Baseline, Mean / Ratio PVRI/SVRI Change from Baseline, Median / Ratio PVRI/SVRI Change from Baseline, Minimum / Ratio PVRI/SVRI Percent Change from Baseline, Maximum / Ratio PVRI/SVRI Percent Change from Baseline, Mean / Ratio PVRI/SVRI Percent Change from Baseline, Median / Ratio PVRI/SVRI Percent Change from Baseline, Minimum / Ratio PVRI/SVRI Post Treatment, Maximum / Ratio PVRI/SVRI Post Treatment, Mean / Ratio PVRI/SVRI Post Treatment, Median / Ratio PVRI/SVRI Post Treatment, Minimum / SVRI Post-treatment, Mean / SVRI Post-treatment, Median / SVRI Post-treatment, Minimum / SVRI Post-treatment, maximum: ITT, each treatment 10 minutes; for SVRI Change From Baseline, Mean / SVRI Change From Baseline, Median / SVRI Change From Baseline, Minimum / SVRI Change From Baseline, maximum: baseline room air; for tolerability: INOT22 diagnostic study, children with pulmonary hypertension
# Description: The INOT22 study, entitled “Comparison of supplemental oxygen and nitric oxide for inhalation plus oxygen in the evaluation of the reactivity of the pulmonary vasculature during acute pulmonary vasodilatory testing” was conducted both to assess the safety and effectiveness of INOmax® as a diagnostic agent in patients undergoing assessment of pulmonary hypertension (primary endpoint), and to confirm the hypothesis that iNO is selective for the pulmonary vasculature (secondary endpoint).
# In particular, the INOT22 protocol studied consecutive children undergoing cardiac catheterization that were prospectively enrolled at 16 centers in the US and Europe. Inclusion criteria: 4 weeks to 18 years of age, pulmonary hypertension diagnosis, i.e. either idiopathic pulmonary hypertension (IPAH) or related to congenital heart disease (CHD) (repaired or unrepaired) or cardiomyopathy, with pulmonary vascular resistance index (PVRI)>3 u−m^2. Later amendments, as discussed herein, added an additional inclusionary criterion of a PCWP less than 20 mm Hg. Patients were studied under general anaesthesia, or with conscious sedation, according to the practice of the investigator. Exclusion criteria: focal infiltrates on chest X-ray, history of intrinsic lung disease, and/or currently taking PDE-5 inhibitors, prostacyclin analogues or sodium nitroprusside. The study involved supplemental O2 and NO for inhalation plus O2 in the evaluation of the reactivity of the pulmonary vasculature during acute pulmonary vasodilator testing. Consecutive children undergoing cardiac catheterization were prospectively enrolled at 16 centers in the US and Europe. […] A specific secondary endpoint was evaluated in study INOT22 to provide a more definitive evaluation.
# The primary objective was to compare the response frequency with iNO and O2 vs. O2 alone; in addition, all subjects were studied with iNO alone. Patients were studied during five periods: Baseline 1, Treatment Period 1, Treatment Period 2, Baseline 2 and Treatment Period 3. All patients received all three treatments; treatment sequence was randomized by center in blocks of 4; in Period 1, patients received either NO alone or O2 alone, and the alternate treatment in Period 3. All patients received the iNO and O2 combination treatment in Period 2. Once the sequence was assigned, treatment was unblinded. Each treatment was given for 10 minutes prior to obtaining hemodynamic measurements, and the Baseline Period 2 was at least 10 minutes.
# [2] = system: neonates with hypoxic respiratory failure; settings: n=114, number (%), cited from earlier work
# [3] = system: term and near-term neonates with pulmonary hypertension and hypoxic respiratory failure; settings: Inhaled NO n=97; number of patients (%); cited from earlier work
Molecule,"SVRI Change From Baseline, Mean [1]","SVRI Change From Baseline, Median [1]","SVRI Change From Baseline, Minimum [1]","SVRI Change From Baseline, maximum [1]","Ratio PVRI/SVRI Change from Baseline, Maximum [1]","Ratio PVRI/SVRI Change from Baseline, Mean [1]","Ratio PVRI/SVRI Change from Baseline, Median [1]","Ratio PVRI/SVRI Change from Baseline, Minimum [1]","Ratio PVRI/SVRI Percent Change from Baseline, Maximum [1]","Ratio PVRI/SVRI Percent Change from Baseline, Mean [1]","Ratio PVRI/SVRI Percent Change from Baseline, Median [1]","Ratio PVRI/SVRI Percent Change from Baseline, Minimum [1]","Ratio PVRI/SVRI Post Treatment, Maximum [1]","Ratio PVRI/SVRI Post Treatment, Mean [1]","Ratio PVRI/SVRI Post Treatment, Median [1]","Ratio PVRI/SVRI Post Treatment, Minimum [1]","SVRI Post-treatment, Mean [1]","SVRI Post-treatment, Median [1]","SVRI Post-treatment, Minimum [1]","SVRI Post-treatment, maximum [1]",other results
"O=O [O2, oxygen]",1.3 WU · m^2,1.0 WU · m^2,−18.1 WU · m^2,17.7 WU · m^2,2.0,−0.1,−0.1,−1.6,93.3%,−19.3%,−21.3%,−122.7%,1.4,0.4,0.4,0.0,18.9 WU · m^2,17.1 WU · m^2,3.9 WU · m^2,43.6 WU · m^2,–
nitric oxide [NO],−0.2 WU · m^2,0.2 WU · m^2,−12.5 WU · m^2,12.7 WU · m^2,1.6,−0.1,0.0,−4.4,294.1%,−6.2%,−13.8%,−256.1%,2.2,0.5,0.3,−1.2,17.8 WU · m^2,15.4 WU · m^2,3.3 WU · m^2,50.7 WU · m^2,"Death or ECMO ([2]; 100% O2 with 20 ppm NO for up to 14 days, primary end point): 52 (46%); Death ([2]; 100% O2 with 20 ppm NO): 16 (14%); ECMO ([2]; 100% O2 with 20 ppm NO): 44 (39%); Adverse Reaction: Atelectasis [3]: 7 (6.5%); Adverse Reaction: Bilirubinemia [3]: 7 (6.5%); Adverse Reaction: Hypokalemia [3]: 9 (8.3%); Adverse Reaction: Hypotension [3]: 6 (5.6%); Adverse Reaction: Thrombocytopenia [3]: 16 (14.8%); tolerability [1]: well-tolerated; tolerability ([1]; listed as iNO): well-tolerated in most patients"
